Measured values as given in US8846947B2, “Benzimidazoles and related analogs as sirtuin modulators” (GlaxoSmithKline LLC, priority 2008, dated 2014).

Target: T1, SIRT1 (Homo sapiens, UniProt Q96EB6)
T1 sequence (Q96EB6 1-747): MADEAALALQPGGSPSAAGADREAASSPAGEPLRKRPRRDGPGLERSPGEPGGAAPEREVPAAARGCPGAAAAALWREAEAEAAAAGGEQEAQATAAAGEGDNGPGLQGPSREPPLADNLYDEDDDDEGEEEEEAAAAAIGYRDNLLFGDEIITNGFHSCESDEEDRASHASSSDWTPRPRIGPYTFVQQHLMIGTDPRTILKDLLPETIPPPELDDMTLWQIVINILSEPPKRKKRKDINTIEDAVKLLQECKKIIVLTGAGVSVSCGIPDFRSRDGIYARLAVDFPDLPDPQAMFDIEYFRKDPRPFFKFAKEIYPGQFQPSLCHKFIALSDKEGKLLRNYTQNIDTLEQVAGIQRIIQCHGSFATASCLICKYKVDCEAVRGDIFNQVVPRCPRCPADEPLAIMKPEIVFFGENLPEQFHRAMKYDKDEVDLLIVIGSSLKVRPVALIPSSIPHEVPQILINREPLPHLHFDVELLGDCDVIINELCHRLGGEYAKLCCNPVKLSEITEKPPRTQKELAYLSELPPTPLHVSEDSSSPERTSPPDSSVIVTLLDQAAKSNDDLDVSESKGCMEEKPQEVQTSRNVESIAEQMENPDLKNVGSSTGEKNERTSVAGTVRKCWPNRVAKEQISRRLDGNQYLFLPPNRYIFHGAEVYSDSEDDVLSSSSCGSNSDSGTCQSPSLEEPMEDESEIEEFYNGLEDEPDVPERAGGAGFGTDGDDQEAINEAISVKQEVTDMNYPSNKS
Assay: Mass spectrometry based SIRT1 deacetylase activation assay (acetylated p53-derived peptide substrate)
Assay type: biochemical
Conditions: 0.5 μM peptide substrate, 120 μM βNAD+, 10 nM SIRT1, 25 minutes at 25° C.

Row | SMILES | EC1.5 | Fold Act. (percent maximum fold activation)
1 | O=C(Nc1ccccc1OCC(O)CO)c1cccc2[nH]c(-c3ccccc3C(F)(F)F)nc12 (stereo not drawn) [Compound 729] | B (EC1.5 1-25 uM) | A (Fold activation >200%)
2 | O=C(Nc1ccccc1OCC(O)CO)c1cccc2[nH]c(-c3cc(F)ccc3C(F)(F)F)nc12 (stereo not drawn) [Compound 730] | B (EC1.5 1-25 uM) | A (Fold activation >200%)
3 | O=C(Nc1nccs1)c1cccc2[nH]c(-c3ccc(N4CC[C@H](F)C4)cc3C(F)F)nc12 [Compound 731] | A (EC1.5<1.0 uM) | A (Fold activation >200%)
4 | Cc1cnc(NC(=O)c2cccc3[nH]c(-c4ccc(N5CC[C@H](F)C5)cc4C(F)F)nc23)s1 [Compound 732] | A (EC1.5<1.0 uM) | A (Fold activation >200%)
5 | O=C(Nc1ccccn1)c1cccc2[nH]c(-c3ccc(N4CC[C@H](F)C4)cc3C(F)F)nc12 [Compound 733] | A (EC1.5<1.0 uM) | A (Fold activation >200%)
6 | O=C(Nc1nccs1)c1cc(N2CCOCC2)cc2[nH]c(-c3ccccc3C(F)F)nc12 [Compound 734] | A (EC1.5<1.0 uM) | A (Fold activation >200%)
7 | O=C(Nc1cccnc1)c1cc(N2CCOCC2)cc2[nH]c(-c3ccccc3C(F)F)nc12 [Compound 735] | A (EC1.5<1.0 uM) | A (Fold activation >200%)
8 | O=C(Nc1ccccn1)c1cc(N2CCOCC2)cc2[nH]c(-c3ccccc3C(F)F)nc12 [Compound 736] | A (EC1.5<1.0 uM) | A (Fold activation >200%)
9 | O=C(Nc1cccnn1)c1cc(N2CCOCC2)cc2[nH]c(-c3ccccc3C(F)F)nc12 [Compound 737] | A (EC1.5<1.0 uM) | A (Fold activation >200%)
10 | O=C(Nc1nccs1)c1cccc2[nH]c(-c3ccc(OC[C@H](O)CO)cc3C(F)(F)F)nc12 [Compound 742] | A (EC1.5<1.0 uM) | A (Fold activation >200%)
11 | O=C(Nc1ccccn1)c1cccc2[nH]c(-c3ccc(OC[C@H](O)CO)cc3C(F)(F)F)nc12 [Compound 744] | A (EC1.5<1.0 uM) | A (Fold activation >200%)
12 | O=C(Nc1nccs1)c1cccc2[nH]c(-c3ccc(OC[C@@H](O)CO)cc3C(F)(F)F)nc12 [Compound 745] | A (EC1.5<1.0 uM) | A (Fold activation >200%)
13 | O=C(Nc1nccs1)c1cc(N2CCOCC2)cc2[nH]c(-c3ccc(F)cc3C(F)F)nc12 [Compound 749] | A (EC1.5<1.0 uM) | A (Fold activation >200%)
14 | O=C(Nc1ccccn1)c1cc(N2CCOCC2)cc2[nH]c(-c3ccc(F)cc3C(F)F)nc12 [Compound 750] | A (EC1.5<1.0 uM) | A (Fold activation >200%)
15 | O=C(Nc1cccnc1)c1cc(N2CCOCC2)cc2[nH]c(-c3ccc(F)cc3C(F)F)nc12 [Compound 751] | A (EC1.5<1.0 uM) | A (Fold activation >200%)
16 | O=C(Nc1cccnn1)c1cc(N2CCOCC2)cc2[nH]c(-c3ccc(F)cc3C(F)F)nc12 [Compound 752] | A (EC1.5<1.0 uM) | A (Fold activation >200%)
17 | O=C(Nc1ccc(OC[C@@H](O)CO)cc1)c1cccc2[nH]c(-c3cccnc3)nc12 [Compound 753] | A (EC1.5<1.0 uM) | A (Fold activation >200%)
18 | O=C(Nc1ccccc1)c1cccc2[nH]c(-c3ccc(Cl)cc3C(F)(F)F)nc12 [Compound 754] | A (EC1.5<1.0 uM) | A (Fold activation >200%)
19 | O=C(Nc1ccccc1)c1cccc2[nH]c(-c3ccc(F)cc3C(F)(F)F)nc12 [Compound 755] | A (EC1.5<1.0 uM) | A (Fold activation >200%)
20 | O=C(Nc1ccccc1)c1cccc2[nH]c(-c3cc(F)ccc3C(F)(F)F)nc12 [Compound 756] | A (EC1.5<1.0 uM) | A (Fold activation >200%)
21 | O=C(Nc1nccs1)c1cccc2nc(-c3ccc(N4CCCC4)cc3C(F)F)[nH]c12 [Compound 764] | A (EC1.5<1.0 uM) | A (Fold activation >200%)
22 | Cc1cnc(NC(=O)c2cccc3nc(-c4ccc(N5CCCC5)cc4C(F)F)[nH]c23)s1 [Compound 765] | A (EC1.5<1.0 uM) | A (Fold activation >200%)
23 | O=C(Nc1ccccn1)c1cccc2nc(-c3ccc(N4CCCC4)cc3C(F)F)[nH]c12 [Compound 766] | B (EC1.5 1-25 uM) | A (Fold activation >200%)
24 | O=C(Nc1cccnc1)c1cc(N2CCOCC2)cc2[nH]c(-c3cc(F)ccc3C(F)F)nc12 [Compound 767] | A (EC1.5<1.0 uM) | A (Fold activation >200%)
25 | O=C(Nc1nccs1)c1cc(N2CCOCC2)cc2[nH]c(-c3cc(F)ccc3C(F)F)nc12 [Compound 768] | A (EC1.5<1.0 uM) | A (Fold activation >200%)
26 | O=C(Nc1ccccn1)c1cc(N2CCOCC2)cc2[nH]c(-c3cc(F)ccc3C(F)F)nc12 [Compound 769] | A (EC1.5<1.0 uM) | A (Fold activation >200%)
27 | O=C(Nc1cccnn1)c1cc(N2CCOCC2)cc2[nH]c(-c3cc(F)ccc3C(F)F)nc12 [Compound 770] | A (EC1.5<1.0 uM) | A (Fold activation >200%)
28 | O=C(Nc1nccs1)c1cncc2nc(-c3ccc(OC[C@@H](O)CO)cc3C(F)F)[nH]c12 [Compound 771] | A (EC1.5<1.0 uM) | A (Fold activation >200%)

Continued, values first:

Row | EC1.5 | Fold Act. (percent maximum fold activation) | SMILES
29 | A (EC1.5<1.0 uM) | A (Fold activation >200%) | O=C(Nc1cccc(OC[C@@H](O)CO)c1)c1cncc2[nH]c(-c3ccc(Cl)cc3C(F)(F)F)nc12 [Compound 738]
30 | A (EC1.5<1.0 uM) | A (Fold activation >200%) | O=C(Nc1cccc(OC[C@H](O)CO)c1)c1cncc2[nH]c(-c3ccc(Cl)cc3C(F)(F)F)nc12 [Compound 739]
31 | A (EC1.5<1.0 uM) | A (Fold activation >200%) | O=C(Nc1cccc(OCC(O)CO)c1)c1cccc2[nH]c(-c3ccc(Cl)cc3C(F)(F)F)nc12 (stereo not drawn) [Compound 740]
32 | A (EC1.5<1.0 uM) | A (Fold activation >200%) | O=C(Nc1cccc(OCC(O)CO)c1)c1cccc2[nH]c(-c3cc(F)ccc3C(F)(F)F)nc12 (stereo not drawn) [Compound 741]
33 | A (EC1.5<1.0 uM) | A (Fold activation >200%) | Cc1cnc(NC(=O)c2cccc3[nH]c(-c4ccc(OC[C@H](O)CO)cc4C(F)(F)F)nc23)s1 [Compound 743]
34 | A (EC1.5<1.0 uM) | A (Fold activation >200%) | Cc1cnc(NC(=O)c2cccc3[nH]c(-c4ccc(OC[C@@H](O)CO)cc4C(F)(F)F)nc23)s1 [Compound 746]
35 | A (EC1.5<1.0 uM) | A (Fold activation >200%) | O=C(Nc1cccc(OC[C@@H](O)CO)c1)c1cncc2[nH]c(-c3ccccc3C(F)(F)F)nc12 [Compound 747]
36 | A (EC1.5<1.0 uM) | A (Fold activation >200%) | O=C(Nc1cccc(OC[C@H](O)CO)c1)c1cncc2[nH]c(-c3ccccc3C(F)(F)F)nc12 [Compound 748]
37 | A (EC1.5<1.0 uM) | A (Fold activation >200%) | O=C(Nc1nccs1)c1cncc2[nH]c(-c3ccc(OC[C@@H](O)CO)cc3C(F)(F)F)nc12 [Compound 758]
38 | A (EC1.5<1.0 uM) | A (Fold activation >200%) | Cc1cnc(NC(=O)c2cncc3[nH]c(-c4ccc(OC[C@@H](O)CO)cc4C(F)(F)F)nc23)s1 [Compound 759]
39 | A (EC1.5<1.0 uM) | A (Fold activation >200%) | O=C(Nc1ccccn1)c1cncc2[nH]c(-c3ccc(OC[C@@H](O)CO)cc3C(F)(F)F)nc12 [Compound 760]
40 | A (EC1.5<1.0 uM) | A (Fold activation >200%) | O=C(Nc1nccs1)c1cncc2[nH]c(-c3ccc(OC[C@H](O)CO)cc3C(F)(F)F)nc12 [Compound 761]
41 | A (EC1.5<1.0 uM) | A (Fold activation >200%) | Cc1cnc(NC(=O)c2cncc3[nH]c(-c4ccc(OC[C@H](O)CO)cc4C(F)(F)F)nc23)s1 [Compound 762]
42 | A (EC1.5<1.0 uM) | A (Fold activation >200%) | O=C(Nc1ccccn1)c1cncc2[nH]c(-c3ccc(OC[C@H](O)CO)cc3C(F)(F)F)nc12 [Compound 763]
